What was measured:
[1] = target: Beta-2 adrenergic receptor (Homo sapiens, UniProt P07550, N293A); assay: Displacement of [3H]dihydroalprenolol from human adrenergic beta2 receptor N293A mutant expressed in COS7 cell membrane
[2] = target: Beta-2 adrenergic receptor (Homo sapiens, UniProt P07550); assay: Displacement of [3H]dihydroalprenolol from human adrenergic beta2 receptor expressed in COS7 cell membrane
[3] = target: Beta-2 adrenergic receptor (Homo sapiens, UniProt P07550, N293L); assay: Displacement of [3H]dihydroalprenolol from human adrenergic beta2 receptor N293L mutant expressed in COS7 cell membrane
Beta-2 adrenergic receptor (Homo sapiens, UniProt P07550, N293L), sequence (P07550 whole entry N293L): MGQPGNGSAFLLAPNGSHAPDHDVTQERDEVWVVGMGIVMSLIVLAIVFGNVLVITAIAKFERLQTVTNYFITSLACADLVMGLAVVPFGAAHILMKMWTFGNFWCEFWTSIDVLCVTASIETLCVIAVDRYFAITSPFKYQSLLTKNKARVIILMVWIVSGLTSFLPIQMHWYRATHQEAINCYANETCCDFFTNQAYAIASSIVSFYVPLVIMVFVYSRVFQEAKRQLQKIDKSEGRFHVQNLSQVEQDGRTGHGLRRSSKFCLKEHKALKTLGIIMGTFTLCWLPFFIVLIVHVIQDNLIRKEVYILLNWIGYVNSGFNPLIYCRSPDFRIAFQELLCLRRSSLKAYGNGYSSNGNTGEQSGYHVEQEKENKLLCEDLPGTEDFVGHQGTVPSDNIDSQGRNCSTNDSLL

[4] = target: Beta-2 adrenergic receptor (Homo sapiens, UniProt P07550, D192G/F193V); assay: Displacement of [3H]dihydroalprenolol from human adrenergic beta2 receptor D192G, F193V mutant expressed in COS7 cell membrane
Beta-2 adrenergic receptor (Homo sapiens, UniProt P07550, D192G/F193V), sequence (P07550 whole entry D192G/F193V): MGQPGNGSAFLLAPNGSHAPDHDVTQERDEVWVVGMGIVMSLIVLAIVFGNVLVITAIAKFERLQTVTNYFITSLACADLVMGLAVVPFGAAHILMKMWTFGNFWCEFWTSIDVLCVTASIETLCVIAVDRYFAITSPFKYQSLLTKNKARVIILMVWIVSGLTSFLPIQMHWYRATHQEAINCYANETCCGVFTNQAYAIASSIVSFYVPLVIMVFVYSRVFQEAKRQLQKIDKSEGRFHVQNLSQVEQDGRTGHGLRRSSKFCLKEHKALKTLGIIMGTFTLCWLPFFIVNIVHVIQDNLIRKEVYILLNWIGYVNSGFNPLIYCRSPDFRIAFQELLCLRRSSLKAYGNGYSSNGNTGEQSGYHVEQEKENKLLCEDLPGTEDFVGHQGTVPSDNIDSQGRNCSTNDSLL

[5] = target: Beta-2 adrenergic receptor (Homo sapiens, UniProt P07550, V117C); assay: Displacement of [3H]dihydroalprenolol from human adrenergic beta2 receptor V117C mutant expressed in COS7 cell membrane
Beta-2 adrenergic receptor (Homo sapiens, UniProt P07550, V117C), sequence (P07550 whole entry V117C): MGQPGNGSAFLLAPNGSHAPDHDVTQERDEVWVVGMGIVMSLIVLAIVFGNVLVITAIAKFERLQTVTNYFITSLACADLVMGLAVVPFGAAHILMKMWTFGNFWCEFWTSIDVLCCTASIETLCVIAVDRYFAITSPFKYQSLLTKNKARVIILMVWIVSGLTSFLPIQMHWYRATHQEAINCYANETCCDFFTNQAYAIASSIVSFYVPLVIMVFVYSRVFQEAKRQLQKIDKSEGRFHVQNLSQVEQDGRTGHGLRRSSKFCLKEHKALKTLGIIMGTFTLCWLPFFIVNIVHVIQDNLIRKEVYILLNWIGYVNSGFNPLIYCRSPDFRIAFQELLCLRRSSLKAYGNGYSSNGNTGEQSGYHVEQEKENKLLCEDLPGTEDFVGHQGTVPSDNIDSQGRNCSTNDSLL

[6] = target: Beta-2 adrenergic receptor (Homo sapiens, UniProt P07550, N293F); assay: Displacement of [3H]dihydroalprenolol from human adrenergic beta2 receptor N293F mutant expressed in COS7 cell membrane
Beta-2 adrenergic receptor (Homo sapiens, UniProt P07550, N293F), sequence (P07550 whole entry N293F): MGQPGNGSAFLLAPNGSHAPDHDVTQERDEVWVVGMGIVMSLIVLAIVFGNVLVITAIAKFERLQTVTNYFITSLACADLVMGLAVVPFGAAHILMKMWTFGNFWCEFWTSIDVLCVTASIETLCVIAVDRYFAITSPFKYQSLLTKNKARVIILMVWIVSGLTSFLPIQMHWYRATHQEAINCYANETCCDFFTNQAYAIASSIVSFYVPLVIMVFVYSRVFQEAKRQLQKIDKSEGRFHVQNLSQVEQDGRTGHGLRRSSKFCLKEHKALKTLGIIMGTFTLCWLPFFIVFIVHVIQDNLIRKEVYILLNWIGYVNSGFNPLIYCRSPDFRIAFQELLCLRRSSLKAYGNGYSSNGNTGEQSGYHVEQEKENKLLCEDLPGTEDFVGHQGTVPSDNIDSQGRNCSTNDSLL

[7] = target: Beta-2 adrenergic receptor (Homo sapiens, UniProt P07550, N293Q); assay: Displacement of [3H]dihydroalprenolol from human adrenergic beta2 receptor N293Q mutant expressed in COS7 cell membrane
Beta-2 adrenergic receptor (Homo sapiens, UniProt P07550, N293Q), sequence (P07550 whole entry N293Q): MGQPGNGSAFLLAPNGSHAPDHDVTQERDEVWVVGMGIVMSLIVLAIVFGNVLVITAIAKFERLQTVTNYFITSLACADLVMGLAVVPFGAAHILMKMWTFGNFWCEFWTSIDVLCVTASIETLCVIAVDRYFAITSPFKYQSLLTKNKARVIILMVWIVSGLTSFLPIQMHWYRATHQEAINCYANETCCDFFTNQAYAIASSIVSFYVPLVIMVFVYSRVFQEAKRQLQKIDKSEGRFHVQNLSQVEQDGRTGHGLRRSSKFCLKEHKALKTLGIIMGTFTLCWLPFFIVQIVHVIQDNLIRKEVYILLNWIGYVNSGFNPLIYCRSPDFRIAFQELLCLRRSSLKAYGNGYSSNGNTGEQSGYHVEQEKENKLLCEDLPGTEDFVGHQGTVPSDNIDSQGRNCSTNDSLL

Beta-2 adrenergic receptor (Homo sapiens, UniProt P07550), sequence (P07550 whole entry): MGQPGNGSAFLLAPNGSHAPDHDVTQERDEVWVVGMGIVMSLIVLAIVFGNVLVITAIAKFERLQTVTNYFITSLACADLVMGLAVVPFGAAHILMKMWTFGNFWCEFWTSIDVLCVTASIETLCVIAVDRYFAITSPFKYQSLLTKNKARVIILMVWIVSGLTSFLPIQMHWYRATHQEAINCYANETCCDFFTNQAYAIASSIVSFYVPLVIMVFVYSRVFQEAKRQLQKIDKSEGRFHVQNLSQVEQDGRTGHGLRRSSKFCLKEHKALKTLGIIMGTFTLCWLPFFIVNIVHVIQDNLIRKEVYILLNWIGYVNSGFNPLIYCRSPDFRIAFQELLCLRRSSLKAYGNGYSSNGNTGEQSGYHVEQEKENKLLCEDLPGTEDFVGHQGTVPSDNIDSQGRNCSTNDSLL
Beta-2 adrenergic receptor (Homo sapiens, UniProt P07550, N293A), sequence (P07550 whole entry N293A): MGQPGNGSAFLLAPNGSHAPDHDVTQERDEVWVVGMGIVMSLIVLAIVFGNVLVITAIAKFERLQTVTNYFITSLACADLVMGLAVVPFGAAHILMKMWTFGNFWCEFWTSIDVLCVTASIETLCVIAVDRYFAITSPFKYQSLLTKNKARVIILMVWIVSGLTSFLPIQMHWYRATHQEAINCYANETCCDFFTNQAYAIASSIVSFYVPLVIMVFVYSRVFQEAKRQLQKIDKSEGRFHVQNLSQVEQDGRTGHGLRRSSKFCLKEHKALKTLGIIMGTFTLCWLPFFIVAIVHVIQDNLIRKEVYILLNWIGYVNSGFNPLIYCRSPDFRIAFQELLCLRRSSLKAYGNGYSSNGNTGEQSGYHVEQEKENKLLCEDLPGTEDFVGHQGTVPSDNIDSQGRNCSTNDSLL

Structure (SMILES)	Ki [1] [µM]	Ki [2] [µM]	Ki [3] [µM]	Ki [4] [µM]	Ki [5] [µM]	Ki [6] [µM]	Ki [7] [µM]
NC[C@H](O)c1ccc(O)c(O)c1F	5450	1160	188	> 2000	> 2000	70.1	3330
NC[C@H](O)c1cc(O)c(O)cc1F	319	15.8	117	19.5	39.8	216	68.9
